Square brackets hold non-standard residues; d marks the D form. Peptide text beside a SMILES is read from it. Leu(ol) = CC(C)C[C@H](N)CO; dIva = CC[C@@](C)(N)C(=O)O; Aib = CC(C)(N)C(=O)O
Columns and labels:
[1] = test system: asynchronous Dd2 culture; experiment: Killing profile (flow cytometry, SYBR Green I / Mitotracker Deep Red FM); type: cell-based, P. falciparum; settings: for Killing Profile: 10 x EC50
Procedure: Killing profile analyses were performed as previously described,[64] in asynchronous Dd2 culture, starting at approximately 1% parasitemia, 4% hematocrit. Compound was added to culture in majority ring stage and incubated for 12, 24, or 48 h prior to washing and sample collection. Media were then changed normally every 24 h for 6 days. Samples taken each day were used for Giemsa thin smears, and flow cytometric analysis to monitor parasitemia and mitotracker retention. For staining, samples were incubated in a solution of 1:1000 SYBR Green I and 0.6 μM Mitotracker Deep red FM for 30 min then read on a CytoFLEX S (Beckman Coulter, Brea, CA), with 100,000 events recorded per sample. Flow cytometry was gated in FlowJo Version 10 using DHA, vehicle, no Mitotracker, and uninfected RBC controls. Assay workflow outline was created using BioRender.

[2] = Electrophysiology: reconstitution into planar lipid bilayers; settings: for channel activity in planar lipid bilayers: 1 μM peptaibol, DPhPc bilayers, pH 7.0 saline; for Channel Induction: Figure 7A summary; for Channel Induction: key: -: A '–' indicates a negative finding; a single '+' indicates a positive finding; a double '++' indicates a strong positive finding
Procedure: Ion channel formation by peptaibols was evaluated with reconstitution into planar lipid bilayers using the Orbit Mini workstation (Nanion). Bilayers were formed from a 5 mg/ml decane solution of 1,2-diphytanoyl-sn-glycero-3-phosphocholine (DPhPc, Avanti Polar Lipids) across 100 μm diameter orifices in the MECA 4 recording chip with 4 microcavities. The bilayers were bathed with saline (in mM: 70 NaCl, 70 KCl, 2.5 MgCl2, 2 CaCl2, 10 HEPES, 10 MES, 10 glucose, pH 7.0) at both faces, with resistances of up to 500 GΩ before channel incorporation. Peptaibols were added from a 10 mM DMSO stock to the cis chamber at a final 1 μM concentration; spontaneous incorporation into the bilayer typically occurred within 10–15 min. Recordings were acquired at 20 kHz and filtered at 1.25 kHz.

[3] = test system: P. falciparum asexual blood stage parasites grown in 0.5% Albumax II; experiment: Antiplasmodial activity with Albumax II media; type: cell-based; settings: RPMI with 0.5% Albumax II; mean ± SEM from 3 biological replicates
Procedure: Asexual blood stage parasites grown in the Chakrabarti laboratory were cultured based on a protocol by Trager and Jensen[57] with some modifications.[35] […] For comparison screening using serum vs Albumax II, culture media was changed from RPMI with 0.5% Albumax II to RPMI with 10% human serum and maintained for a minimum of 2 weeks prior to assay use.
Inhibitor EC50 determination in 3D7 and Dd2 was performed as discussed in,[35] based on established protocols.[60] Assays utilized asynchronous culture at 1% parasitemia, 1% hematocrit. Culture was incubated with compound dilutions for 72 h followed by freezing at −80°C to promote lysis, then thawing and incubation for 45 min–1 h with 1× SYBR Green I in a lysis buffer (20 mM Tris-HCL, 0.08% saponin, 5 mM EDTA, and 0.8% Triton X-100). Fluorescence was read 485 nm excitation, 530 nm emission on a Synergy Neo2 multimode reader (BioTek Winsooki, VT) and EC50 curves were generated using CDD Vault (https://www.collaborativedrug.com/).

[4] = test system: P. falciparum Dd2; set-up: method as in PMID: 33565879; settings: asynchronous culture, 1% parasitemia, 1% hematocrit, 72 h, SYBR Green I; mean ± SEM, biological triplicate; ref PMID: 33565879; cited from earlier work
Text: Arrow length represents correlation strength. Arrow direction indicates positive/negative correlation. Peptaibols color-coded based on type. See also Figure S1. […] Values represent mean ± SEM. Resistance index (RI) = Dd2 EC50/3D7 EC50, Selectivity index (SI) = HepG2 EC50/Dd2 EC50.

[5] = test system: Attb; type: cell-based, P. falciparum; settings: Asexual Blood Stage DHODH; mean ± SEM of 3 biological replicates
Procedure: (§1) Parasites grown in the Winzeler laboratory for screening and drug selections were maintained in RPMI 1640 medium supplemented with 0.25% Albumax I, 26 mM sodium bicarbonate, 0.1 mM hypoxanthine, and […] gentamicin. Human O+ whole blood obtained from the Blood Bank of The Scripps Research Institute was used for cultivation (human subjects IRB number: 125933). Blood-stage cultures were kept at 37°C with 5% CO2, 3% O2, and 92% N2. Monitoring of parasitemia and parasite morphology was performed using microscopic evaluation of thin blood smears that were first fixed with methanol, and then stained with Giemsa.
(§2) Cross resistance screening was performed with 0.3% parasitemia, 2.5% hematocrit, dispensed into 1536-well black, clear bottom plates with pre-spotted compound using a MultiFloTM Microplate dispenser (BioTek) at a volume of 8 μL/well. Plates where then incubated at 37°C for 72 h, after which 10× SYBR Green I (Invitrogen) in a lysis buffer (20 mM Tris/HCl, 5 mM EDTA, 0.16% (w/v) saponin, 1.6% (v/v) […]) was then added using a MultiFloTM Microplate dispenser (BioTek) at a volume of 2 μL/well. After 24 h incubation at room temperature, viability was measured via fluorescence using the EnVision® Multilabel Reader (PerkinElmer) (485 nm excitation, 530 nm emission). IC50 values were determined in CDD vault (https://www.collaborativedrug.com/).

[6] = test system: attb ScDHODH; type: cell-based, P. falciparum; settings: Asexual Blood Stage DHODH; line expressing S. cerevisiae DHODH; mean ± SEM of 3 biological replicates
Procedure: as §1, §2

[7] = 10 x EC50, monitored for 6 days, 3 biological replicates

| SMILES | Killing Profile [1] | parasitemia after 12 h incubation and washout [1, 7] | parasitemia after 48 h incubation and washout [1, 7] | Killing Profile ([1]; listed as Harzianin NPDG H) | channel activity in planar lipid bilayers [2] | Channel Induction [2] | EC50 [3] | EC50 [4] | EC50 [5] | EC50 [6] |
| --- | --- | --- | --- | --- | --- | --- | --- | --- | --- | --- |
| CC[C@H](C)[C@H](NC(=O)[C@H](C)NC(=O)[C@@H]1CCCN1C(=O)C(C)(C)NC(=O)[C@H](CC(C)C)NC(=O)[C@H](CCC(N)=O)NC(=O)[C@@](C)(CC)NC(C)=O)C(=O)NC(C)(C)C(=O)N1CCC[C@H]1C(=O)N[C@](C)(CC)C(=O)N[C@@H](CC(C)C)C(=O)NC(C)(C)C(=O)N1CCC[C@H]1C(=O)N[C@H](CO)CC(C)C [HZ NPDG-H, harzianin NPDG H] (Ac-[dIva]QL[Aib]PAI[Aib]P[dIva]L[Aib]P[Leu(ol)]) | cytostatic | recovered by day 3 | increase in parasitemia at day 5 | Slow | did not induce detectable channel activity | - | 0.33 ± 0.09 µM | 0.33 ± 0.09 µM |  |  |
| CC[C@H](C)[C@H](NC(=O)[C@H](CC(C)C)NC(=O)[C@H](CCC(N)=O)NC(=O)[C@@](C)(CC)NC(C)=O)C(=O)NC(C)(C)C(=O)N1CCC[C@H]1C(=O)N[C@](C)(CC)C(=O)N[C@@H](CC(C)C)C(=O)NC(C)(C)C(=O)N1CCC[C@H]1C(=O)N[C@H](CO)CC(C)C [HZ NPDG-I, harzianin NPDG I] (Ac-[dIva]QLI[Aib]P[dIva]L[Aib]P[Leu(ol)]) | Rapid | inhibit parasitemia for all 6 days |  |  | reproducibly induced unambiguous channel-like activity | + | 0.1 ± 0.01 µM | 0.1 µM | 0.0057 ± 0.0023 µM | 0.0091 ± 0.0015 µM |
| CC[C@@](C)(NC(=O)C(C)(C)NC(=O)[C@H](CC(C)C)NC(=O)[C@@H]1CCCN1C(=O)C(C)(C)NC(=O)[C@H](CC(C)C)NC(=O)CNC(=O)C(C)(C)NC(=O)[C@@H](NC(=O)C(C)(C)NC(=O)[C@H](CCC(N)=O)NC(=O)C(C)(C)NC(=O)C(C)(C)NC(=O)[C@H](C)NC(=O)CNC(=O)C(C)(C)NC(C)=O)C(C)C)C(=O)N[C@@H](CCC(N)=O)C(=O)N[C@H](CO)CC(C)C [TC HA-II, trichorzin HA II] (Ac-[Aib]GA[Aib][Aib]Q[Aib]V[Aib]GL[Aib]PL[Aib][dIva]Q[Leu(ol)]) | Rapid | inhibit parasitemia for all 6 days |  |  | did not reveal channel activity | - |  |  |  |  |

From article PMC10923054, “Antiplasmodial peptaibols act through membrane directed mechanisms” (Cell Chemical Biology, 2024)
